ChEMBL document CHEMBL1131895, “Proteasome inhibition by the natural products epoxomicin and dihydroeponemycin: insights into specificity and potency” (Bioorg Med Chem Lett, 1999)

Key:
Type in all cases: functional
[1] = Antiproliferative activity of the compound
[2] = Inhibition of the chymotrypsin-like activity
[3] = Inhibition of the PGPH-like activity
[4] = Inhibition of the trypsin-like activity

Structure (SMILES) | IC50 [1] | k obs / 1 [2] | k obs / 1 [3] | k obs / 1 [4]
CC[C@H](C)[C@H](NC(=O)[C@H]([C@@H](C)CC)N(C)C(C)=O)C(=O)NC(C(=O)NC(CC(C)C)C(=O)[C@@]1(CO)CO1)[C@@H](C)O (single isomer, unassigned) | 0.06 µM | 18000 M⁻¹ s⁻¹ | 37 M⁻¹ s⁻¹ | 290 M⁻¹ s⁻¹
CC(C)CCCCC(=O)NC(CO)C(=O)N[C@H](CC(C)C)C(=O)[C@@]1(C)CO1 (some centres not stated) | 0.26 µM | 34 M⁻¹ s⁻¹ | 57 M⁻¹ s⁻¹ | 5 M⁻¹ s⁻¹
CC[C@H](C)[C@H](NC(=O)[C@H]([C@@H](C)CC)N(C)C(C)=O)C(=O)NC(CO)C(=O)NC(CC(C)C)C(=O)[C@@]1(C)CO1 (single isomer, unassigned) | 0.004 µM | 32000 M⁻¹ s⁻¹ | 90 M⁻¹ s⁻¹ | 1100 M⁻¹ s⁻¹
CC(C)CCCCC(=O)NC(CO)C(=O)N[C@H](CC(C)C)C(=O)[C@@]1(CO)CO1 (some centres not stated) | 0.1 µM | 58 M⁻¹ s⁻¹ | 175 M⁻¹ s⁻¹ | 17 M⁻¹ s⁻¹
CC(C)CCCCC(=O)NC(C(=O)NC(CC(C)C)C(=O)[C@@]1(CO)CO1)[C@@H](C)O (some centres not stated) | 0.85 µM | 22 M⁻¹ s⁻¹ | 50 M⁻¹ s⁻¹ | 5 M⁻¹ s⁻¹
CC(C)CCCCC(=O)NC(C(=O)NC(CC(C)C)C(=O)[C@@]1(C)CO1)[C@@H](C)O (some centres not stated) | 0.52 µM | 25 M⁻¹ s⁻¹ | 45 M⁻¹ s⁻¹ | 4 M⁻¹ s⁻¹
CC[C@H](C)[C@H](NC(=O)[C@H]([C@@H](C)CC)N(C)C(C)=O)C(=O)NC(CO)C(=O)NC(CC(C)C)C(=O)[C@@]1(CO)CO1 (single isomer, unassigned) | 0.14 µM | 17000 M⁻¹ s⁻¹ | 35 M⁻¹ s⁻¹ | 470 M⁻¹ s⁻¹
CC[C@H](C)[C@H](NC(=O)[C@H]([C@@H](C)CC)N(C)C(C)=O)C(=O)NC(C(=O)NC(CC(C)C)C(=O)[C@@]1(C)CO1)[C@@H](C)O (single isomer, unassigned) [EPOXOMYCIN] | 0.004 µM | 20000 M⁻¹ s⁻¹ | 43 M⁻¹ s⁻¹ | 310 M⁻¹ s⁻¹
